Like-named read-outs stand apart in the source and are kept apart here.
Columns and labels:
Type in all cases: biochemical
MMP-8 = molecular target: T1, MMP-8 (Homo sapiens, UniProt P22894); assay: In vitro MMP-8 inhibition test
T1 construct: purchased R&D Systems 908-MP
Text: (§1) The MMP-mediated amidolytic cleavage of a suitable peptide substrate leads to an increase in fluorescent light here too. The signal intensity of the fluorescent light is directly proportional to the enzyme activity. The active concentration of a test compound at which half the enzyme is inhibited (50% signal intensity of the fluorescent light) is reported as the 1050 value.
(§2) Recombinant MMP-8 (from R&D Systems, 908-MP) is chemically activated in accordance with the manufacturer's instructions using APMA. 1 μl of the test compound to be analysed (as a solution in DMSO, suitable concentrations, for example, 1 nM to 30 μM) is pipetted into 24 μl of activated enzyme (final concentration, for example, 0.5 nM) in reaction buffer (50 mM Tris/HCl pH 7.5, 10 mM CaCl2, 150 mM NaCl, 0.05% Brij®-35) in a white 384-hole microtiter plate (MTP). The enzymatic reaction is started by adding the intramolecularly quenched Mca-Pro-Leu-Gly-Leu-Dpa(Dnp)-Ala-Arg-NH2 substrate (final concentration, for example, 10 μM; R&D Systems, ES-001), so as to result in a total test volume of 50 μl. The course of the MMP-8 reaction is measured by measuring the fluorescence intensity (excitation 320 nm, emission 410 nm) over a suitable period of time (for example over 120 min at a temperature of 32° C.).

[1] = molecular target: T2, human macrophage elastase (HME/hMMP-12) (Homo sapiens, UniProt P39900); assay: In vitro HME inhibition test (standard or high-sensitivity)
T2 construct: 0.5 nM HME; purchased R&D Systems 917-MP
T2 sequence (P39900 106-470): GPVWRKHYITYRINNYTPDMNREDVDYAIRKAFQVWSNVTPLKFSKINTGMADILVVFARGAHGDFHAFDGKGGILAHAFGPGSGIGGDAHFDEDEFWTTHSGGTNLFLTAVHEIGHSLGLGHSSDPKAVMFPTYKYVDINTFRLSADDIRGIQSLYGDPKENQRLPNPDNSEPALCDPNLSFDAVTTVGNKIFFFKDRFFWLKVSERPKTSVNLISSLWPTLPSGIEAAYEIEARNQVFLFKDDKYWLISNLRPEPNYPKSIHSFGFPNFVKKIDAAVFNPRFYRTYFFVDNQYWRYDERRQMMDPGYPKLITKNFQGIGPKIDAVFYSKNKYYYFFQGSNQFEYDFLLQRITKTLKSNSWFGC
Description: as §1, with “potency of the compounds according to the invention with respect to HME (MMP-12) is determined in an in vitro inhibition test. The HME-mediated” for “MMP-mediated”, “therein.” for “here too.”, “IC50” for “1050”
In a 384 hole microtiter plate, in a total test volume of 41 μl, the test buffer (0.1 M HEPES pH 7.4, 0.15 M NaCl, 0.03 M CaCl2, 0.004 mM ZnCl2, 0.02 M EDTA, 0.005% Brij®), the enzyme (0.5 nM HME; from R&D Systems, 917-MP, autocatalytic activation according to the manufacturer's instructions) and the intramolecularly quenched substrate [5 μM Mca-Pro-Leu-Gly-Leu-Glu-Glu-Ala-Dap(Dnp)-NH2; Bachem, M-2670] are incubated in the absence and presence of the test substance (as a solution in DMSO) at 37° C. for two hours. The fluorescence intensity of the test mixtures is measured (excitation […], emission 393 nm). The IC50 values are ascertained by plotting the fluorescent light intensity against the active ingredient concentration.
In this case, an enzyme concentration ten times lower is used (final concentration, for example, 0.05 nM) in order to achieve an elevated test sensitivity. The incubation period chosen for the test is correspondingly longer (for example 16 hours).

MMP-1 = molecular target: T3, MMP-1 (Homo sapiens, UniProt P03956); assay: In vitro MMP-1 inhibition test
T3 construct: purchased R&D Systems 901-MP
T3 sequence (P03956 100-469): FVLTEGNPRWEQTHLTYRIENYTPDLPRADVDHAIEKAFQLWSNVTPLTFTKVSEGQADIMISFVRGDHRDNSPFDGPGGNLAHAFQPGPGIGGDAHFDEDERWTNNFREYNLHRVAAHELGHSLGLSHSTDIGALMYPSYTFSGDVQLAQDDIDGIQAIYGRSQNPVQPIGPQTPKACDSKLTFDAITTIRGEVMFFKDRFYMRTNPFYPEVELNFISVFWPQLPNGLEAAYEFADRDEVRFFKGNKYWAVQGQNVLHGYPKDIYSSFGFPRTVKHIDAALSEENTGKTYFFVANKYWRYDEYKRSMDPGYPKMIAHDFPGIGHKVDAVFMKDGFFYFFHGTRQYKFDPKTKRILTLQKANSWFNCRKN
Text: as §1
as §2, with “MMP-1” for “MMP-8”, “901-MP)” for “908-MP)”, “2” for “0.5”

mouse MMP-2 = molecular target: T4, mouse MMP-2 (Mus musculus, UniProt P33434); assay: In vitro mouse MMP-2 inhibition test
T4 construct: purchased R&D Systems 924-MP
T4 sequence (P33434 110-662): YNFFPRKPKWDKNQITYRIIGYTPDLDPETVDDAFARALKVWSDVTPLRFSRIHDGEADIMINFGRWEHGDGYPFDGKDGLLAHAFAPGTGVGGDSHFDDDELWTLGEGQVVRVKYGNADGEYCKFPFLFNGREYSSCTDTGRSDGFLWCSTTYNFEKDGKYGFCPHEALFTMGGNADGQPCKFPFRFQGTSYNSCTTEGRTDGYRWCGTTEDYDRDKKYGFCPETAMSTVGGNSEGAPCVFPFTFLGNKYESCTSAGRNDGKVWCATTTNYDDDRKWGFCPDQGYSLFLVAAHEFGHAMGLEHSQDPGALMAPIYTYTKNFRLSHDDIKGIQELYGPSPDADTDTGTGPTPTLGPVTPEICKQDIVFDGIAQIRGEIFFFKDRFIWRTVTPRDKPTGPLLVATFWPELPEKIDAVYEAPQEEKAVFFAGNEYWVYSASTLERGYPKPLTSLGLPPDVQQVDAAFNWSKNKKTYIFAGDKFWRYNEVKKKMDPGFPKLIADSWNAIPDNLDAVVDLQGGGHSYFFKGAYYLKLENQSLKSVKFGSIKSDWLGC
Text: as §1
as §2, with “Recombinant mouse MMP-2” for “Recombinant MMP-8”, “Systems, 924-MP)” for “Systems, 908-MP)”, “example, 0.1” for “example, 0.5”, “the MMP-2” for “the MMP-8”

[2] = standard or high-sensitivity HME inhibition test, read-out: HME/hMMP-12 IC50
[3] = absence of serum albumin (BSA), read-out: HME IC50 (−BSA)

T1 sequence (P22894 101-467): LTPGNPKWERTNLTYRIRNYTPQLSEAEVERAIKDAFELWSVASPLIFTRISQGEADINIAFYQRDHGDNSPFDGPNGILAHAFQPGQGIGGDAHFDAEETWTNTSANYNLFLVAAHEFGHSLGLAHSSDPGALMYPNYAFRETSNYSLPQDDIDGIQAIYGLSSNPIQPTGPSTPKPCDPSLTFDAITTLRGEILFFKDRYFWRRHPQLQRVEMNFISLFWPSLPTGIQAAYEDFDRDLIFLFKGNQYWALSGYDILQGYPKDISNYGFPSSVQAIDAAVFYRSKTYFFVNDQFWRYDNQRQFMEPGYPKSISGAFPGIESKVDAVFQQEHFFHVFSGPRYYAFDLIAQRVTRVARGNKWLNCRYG

Compound: O=C(O)[C@H]1[C@H](Cn2nnc3ccc(C(F)(F)F)cc3c2=O)CC[C@@H]1C(=O)c1ccc(OCC2CCOCC2)cc1 (racemic) [Example 7, (+/−)-(1RS,2SR,5RS)-2-{[4-Oxo-6-(trifluoromethyl)-1,2,3-benzotriazin-3(4H)-yl]methyl}-5-[4-(tetrahydro-2H-pyran-4-ylmethoxy)benzoyl]cyclopentanecarboxylic acid]
- IC50 (MMP-8): 1 nM
- IC50 [1, 2]: 0.031 nM
- IC50 (MMP-1): 6500 nM

Compound: Cc1ccc2nnn(C[C@@H]3CC[C@H](C(=O)c4ccc(OCCC5CCOCC5)cc4)[C@H]3C(=O)O)c(=O)c2c1 (racemic) [Example 19, (+/−)-(1RS,2SR,5RS)-2-[(6-Methyl-4-oxo-1,2,3-benzotriazin-3(4H)-yl)methyl]-5-{4-[2-(letrahydro-2H-pyran-4-yl)ethoxy]benzoyl}cyclopentanecarboxylic acid]
- IC50 (MMP-8): 28 nM
- IC50 (mouse MMP-2): 840 nM
- IC50 [1, 3]: 0.12 nM
- IC50 [1, 2]: 0.12 nM
- IC50 (MMP-1): > 40000 nM

Compound: O=C(O)[C@@H]1[C@@H](Cn2nnc3ccccc3c2=O)CC[C@H]1C(=O)c1ccc(OCCC2CCOCC2)cc1 (single isomer, unassigned) [Example 5, (+)-(1RS,2SR,5RS)-2-[(4-Oxo-1,2,3-benzotriazin-3(4H)-yl)methyl]-5-{4-[2-(tetrahydro-2H-pyran-4-yl)ethoxy]benzoyl}cyclopentanecarboxylic acid]
- IC50 (MMP-8): 15 nM
- IC50 (mouse MMP-2): 45 nM
- IC50 [1, 3]: 0.085 nM
- IC50 [1, 2]: 0.085 nM
- IC50 (MMP-1): > 40000 nM

Compound: O=C(O)[C@@H]1[C@@H](Cn2nnc3ccc(C(F)(F)F)cc3c2=O)CC[C@H]1C(=O)c1ccc(OCCC2CCOCC2)cc1 (single isomer, unassigned) [Example 11, (+)-(1RS,2SR,5RS)-2-{[4-Oxo-6-(trifluoromethyl)-1,2,3-benzotriazin-3(4H)-yl]methyl}-5-{4-[2-(tetrahydro-2H-pyran-4-yl)ethoxy]benzoyl}cyclopentanecarboxylic acid]
- IC50 (MMP-8): 5.6 nM
- IC50 (mouse MMP-2): 640 nM
- IC50 [1, 3]: 0.19 nM
- IC50 [1, 2]: 0.19 nM
- IC50 (MMP-1): 27000 nM

Compound: O=C(O)[C@@H]1[C@@H](Cn2nnc3ccc(C(F)(F)F)cc3c2=O)CC[C@H]1C(=O)c1ccc(SCC2CCOCC2)cc1 (single isomer, unassigned) [Example 15, (+)-(1RS,2SR,5RS)-2-{[4-Oxo-6-(trifluoromethyl)-1,2,3-benzotriazin-3(4H)-yl]methyl}-5-{4-[(tetrahydro-2H-pyran-4-ylmethyl)sulphanyl]benzoyl}cyclopentanecarboxylic acid]
- IC50 (MMP-8): 0.9 nM
- IC50 [1, 3]: 0.026 nM
- IC50 [1, 2]: 0.026 nM
- IC50 (MMP-1): 11000 nM

Compound: Cc1ccc2nnn(C[C@H]3CC[C@@H](C(=O)c4ccc(OCCC5CCOCC5)cc4)[C@@H]3C(=O)O)c(=O)c2c1 (single isomer, unassigned) [Example 20, (+)-(1RS,2SR,5RS)-2-[(6-Methyl-4-oxo-1,2,3-benzotriazin-3(4H)-yl)methyl]-5-{4-[2-(tetrahydro-2H-pyran-4-yl)ethoxy]benzoyl}cyclopentanecarboxylic acid]
- IC50 (MMP-8): 10 nM
- IC50 (mouse MMP-2): 340 nM
- IC50 [1, 3]: 0.053 nM
- IC50 [1, 2]: 0.053 nM
- IC50 (MMP-1): > 40000 nM

Compound: O=C(O)[C@H]1[C@H](Cn2nnc3ccccc3c2=O)CC[C@@H]1C(=O)c1ccc(OCC2CCOCC2)cc1 (stereo in doubt) [Example 1, (+/−)-(1RS,2SR,5RS)-2-[(4-Oxo-1,2,3-benzotriazin-3(4H)-yl)methyl]-5-[4-(tetrahydro-2H-pyran-4-ylmethoxy)benzoyl]cyclopentanecarboxylic acid]
- IC50 (MMP-8): 11 nM
- IC50 (mouse MMP-2): 170 nM
- IC50 [1, 3]: 0.04 nM
- IC50 [1, 2]: 0.04 nM
- IC50 (MMP-1): 26000 nM

Compound: O=C(O)[C@@H]1[C@@H](Cn2nnc3ccccc3c2=O)CC[C@H]1C(=O)c1ccc(OCC2CCOCC2)cc1 (stereo in doubt) [Example 2, (+)-(1RS,2SR,5RS)-2-[(4-Oxo-1,2,3-benzotriazin-3(4H)-yl)methyl]-5-[4-(tetrahydro-2H-pyran-4-ylmethoxy)benzoyl]cyclopentanecarboxylic acid]
- IC50 (MMP-8): 4.7 nM
- IC50 (mouse MMP-2): 58 nM
- IC50 [1, 3]: 0.071 nM
- IC50 [1, 2]: 0.071 nM
- IC50 (MMP-1): 10000 nM

Compound: O=C(O)[C@H]1[C@H](Cn2nnc3ccccc3c2=O)CC[C@@H]1C(=O)c1ccc(OCCC2CCOCC2)cc1 (stereo in doubt) [Example 4, (+/−)-(1RS,2SR,5RS)-2-[(4-Oxo-1,2,3-benzotriazin-3(4H)-yl)methyl]-5-{4-[2-(tetrahydro-2H-pyran-4-yl)ethoxy]benzoyl}cyclopentanecarboxylic acid]
- IC50 (MMP-8): 98 nM
- IC50 (mouse MMP-2): 490 nM
- IC50 [1, 3]: 0.37 nM
- IC50 [1, 2]: 0.37 nM
- IC50 (MMP-1): > 40000 nM

Compound: O=C(O)[C@H]1[C@H](Cn2nnc3ccc(C(F)(F)F)cc3c2=O)CC[C@@H]1C(=O)c1ccc(OCCC2CCOCC2)cc1 (stereo in doubt) [Example 10, (+/−)-(1RS ,2S R,5RS)-2-{[4-Oxo-6-(trifluoromethyl)-1,2,3-benzotriazin-3(4H)-yl]methyl}-5-{4-[2-(tetrahydro-2H-pyran-4-yl)ethoxy]benzoyl}cyclopentanecarboxylic acid]
- IC50 (MMP-8): 3.9 nM
- IC50 (mouse MMP-2): 300 nM
- IC50 [1, 2]: 0.021 nM
- IC50 (MMP-1): 8800 nM

Compound: (+)-(1RS,2SR,5RS)-2-{[4-Oxo-6-(trifluoromethyl)-1,2,3-benzotriazin-3(4H)-yl]methyl}-5-[4-(tetra-hydro-2H-pyran-4-ylmethoxy)benzoyl]cyclopentanecarboxylic acid [Example 8]
- IC50 (MMP-8): 0.6 nM
- IC50 [1, 3]: 0.016 nM
- IC50 [1, 2]: 0.016 nM
- IC50 (MMP-1): 1800 nM
